Laboratory results: PubChem BioAssay (NCI)
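48-hour exposure; five concentrations; linearly interpolated endpoints. GI50 is the concentration that inhibits growth by half. TGI marks complete inhibition of growth.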

Experiments:
Test in all cases: inhibition of tumour cell growth, NCI panel, 48 h
BT-549 breast = tested on: BT-549 breast
DU-145 prostate = tested on: DU-145 prostate
MOLT-4 leukemia = tested on: MOLT-4 leukemia
T-47D breast = tested on: T-47D breast
COLO 205 colon = tested on: COLO 205 colon
EKVX NSCLC = tested on: EKVX NSCLC
HOP-62 NSCLC = tested on: HOP-62 NSCLC
SF-268 CNS = tested on: SF-268 CNS
NCI/ADR-RES ovarian = tested on: NCI/ADR-RES ovarian
PC-3 prostate = tested on: PC-3 prostate

Compound | GI50 (BT-549 breast) [µM] | TGI (BT-549 breast) [µM] | GI50 (DU-145 prostate) [µM] | TGI (DU-145 prostate) [µM] | GI50 (MOLT-4 leukemia) [µM] | TGI (MOLT-4 leukemia) [µM] | GI50 (T-47D breast) [µM] | TGI (T-47D breast) [µM] | TGI (COLO 205 colon) [µM] | TGI (EKVX NSCLC) [µM] | TGI (HOP-62 NSCLC) [µM] | TGI (SF-268 CNS) [µM] | GI50 (COLO 205 colon) [µM] | GI50 (EKVX NSCLC) [µM] | GI50 (HOP-62 NSCLC) [µM] | GI50 (SF-268 CNS) [µM] | GI50 (NCI/ADR-RES ovarian) [µM] | TGI (NCI/ADR-RES ovarian) [µM] | GI50 (PC-3 prostate) [µM] | TGI (PC-3 prostate) [µM]
COc1cc(C2CC(c3ccc(Cl)cc3)=NN2C(C)=O)ccc1Oc1ccnc2cc(Cl)ccc12 (centres undefined) | 1.4 | > 100 | > 100 | > 100 | > 100 | > 100 | 2.85 | > 100 |  |  |  |  |  |  |  |  |  |  |  | 
O=C(O)C1CC2C=CCC(C2)C1 (centres undefined) |  |  |  |  |  | > 100 |  |  | > 100 | > 100 | > 100 | > 100 |  |  |  |  |  |  |  | 
CCOC(=O)NN1C(=O)C(=P(c2ccccc2)(c2ccccc2)c2ccccc2)C(C(=O)OC)=C1C |  |  |  |  |  | > 100 |  |  | > 100 | > 100 | > 100 | > 100 |  |  |  |  |  |  |  | 
N.N.N.N.O=S([O-])[O-].[Co+3].[N-]=[N+]=[N-] |  |  |  |  | > 100 | > 100 |  |  | > 100 | > 100 | > 100 | > 100 | > 100 | > 100 | > 100 | > 100 |  |  |  | 
O=C1N=C2N=C(c3ccc(Cl)cc3)N(c3ccc(Cl)cc3)N2Sc2ccccc21 |  |  |  |  |  | > 100 |  |  | > 100 | > 100 | > 100 | > 100 |  |  |  |  |  |  |  | 
O=C(O)C(Cc1ccccc1)N1C(=O)/C(=C/C(Cl)=C/c2ccc([N+](=O)[O-])cc2)SC1=S (centres undefined) |  |  | 2.06 | 4.56 | 3.14 | > 100 |  |  | 6.21 | 7.29 | 6.75 |  | 2.45 | 2.59 | 2.31 |  | 3.39 | > 100 | 2.53 | 7.98
COc1cc(N)c(Cl)cc1C(=O)N[C@@H]1CCN(CCCOc2ccc(F)cc2)C[C@@H]1OC | 34.9 | > 100 | > 100 | > 100 | 29.8 | > 100 | 27.3 | > 100 | > 100 | > 100 |  | > 100 | 54.8 | > 100 |  | > 100 | > 100 | > 100 |  | 
CN(C)C(=S)/N=c1\ssc(=Nc2ccccc2)n1-c1ccccc1 |  |  |  |  |  | > 100 |  |  |  | 94.4 | 75.5 | 98.2 |  |  |  |  |  |  |  | 
Nc1ccc(C(=O)N/C(=C\c2ccc3c(c2)OCO3)c2nc3ccccc3s2)cc1 |  |  |  |  |  |  |  |  | 34.9 | 25.9 |  | 24.2 |  |  |  |  |  |  |  | 
COC(=O)C1=C(O)c2cc(OC)c(OC)c(OC)c2C(c2ccc3c(c2)OCO3)[C@@H]1C(=O)OC (some centres undefined) |  |  |  |  |  | > 100 |  |  | 6.37 | > 100 | > 100 | > 100 |  |  |  |  |  |  |  | 
CCOC(=N)CC(=O)Nc1ccccc1CC |  |  |  |  |  | > 100 |  |  | > 100 | > 100 | > 100 | > 100 |  |  |  |  |  |  |  | 
COc1ccc(OCC(=O)O)c2c1CCC(C)C2=O (centres undefined) |  |  |  |  |  | > 100 |  |  | > 100 | > 100 | > 100 | > 100 |  |  |  |  |  |  |  | 
c1ccc(N2CCN(CCN3CCc4c([nH]c5ccccc45)C3c3cccnc3)CC2)cc1 (centres undefined) |  |  |  |  |  | > 100 |  |  |  | > 100 | > 100 | > 100 |  |  |  |  |  |  |  | 
Cc1cccc(C=NC23CC4CC(CC(C4)C2)C3)c1 |  |  |  |  |  | > 100 |  |  | > 100 | > 100 | > 100 | > 100 |  |  |  |  |  |  |  | 
COc1ccccc1/C=C(\NC(=O)c1ccccc1)c1nc2ccccc2[nH]1 |  |  |  |  |  | > 100 |  |  | 80.3 | > 100 |  | > 100 |  |  |  |  |  |  |  | 
COc1ccc(CN2c3ccccc3Sc3ccccc32)cc1O | 0.773 | 17.1 | 0.374 | 15 | 0.42 | 22.4 |  |  | 4.6 | 15.9 | 17.4 | 20.5 | 0.789 | 0.378 | 0.384 | 0.966 | 0.291 | 0.863 | 0.503 | 16.1
C[C@@H]1CC2(C[C@@H](C)C3[C@@H](CC4(C)CCCC5C6=CC(O)(CC[C@]34C)OC6=CC(=O)OC5(C)C)O2)OC1=O (some centres undefined) |  |  |  |  |  | > 100 |  |  | > 100 |  |  |  |  |  |  |  |  |  |  | 
COC(OC)c1cccnc1C |  |  |  |  |  | > 100 |  |  | > 100 | > 100 | > 100 | > 100 |  |  |  |  |  |  |  | 
CCOC1=C/C(=N\Nc2ccc([N+](=O)[O-])cc2)CCC1 |  | 43.8 |  | > 100 |  | > 100 |  |  | 51.3 | > 100 | > 100 | 44.9 |  |  |  |  |  | > 100 |  | > 100

Compound | GI50 (BT-549 breast) [µM] | TGI (BT-549 breast) [µM] | GI50 (DU-145 prostate) [µM] | TGI (DU-145 prostate) [µM] | GI50 (MOLT-4 leukemia) [µM] | TGI (MOLT-4 leukemia) [µM] | GI50 (T-47D breast) [µM] | TGI (T-47D breast) [µM] | TGI (COLO 205 colon) [µM] | TGI (EKVX NSCLC) [µM] | TGI (HOP-62 NSCLC) [µM] | TGI (SF-268 CNS) [µM] | GI50 (COLO 205 colon) [µM] | GI50 (EKVX NSCLC) [µM] | GI50 (HOP-62 NSCLC) [µM] | GI50 (SF-268 CNS) [µM] | GI50 (NCI/ADR-RES ovarian) [µM] | TGI (NCI/ADR-RES ovarian) [µM] | GI50 (PC-3 prostate) [µM] | TGI (PC-3 prostate) [µM]
CC(NC1CCCC[C@@H]1O)c1ccccc1 (some centres undefined) |  |  |  |  |  | > 100 |  |  | > 100 | > 100 | > 100 |  |  |  |  |  |  |  |  | 
CCCCC[C@H]1C/C=C2/C(=O)C=C[C@@H]2C/C=C\CCCC(=O)O1 | 0.147 | 0.468 | 0.169 | 1.94 | 0.143 | 1.06 |  |  | 0.256 | 1.97 | 0.341 | 5.94 | 0.113 | 0.172 | 0.129 | 0.19 | 0.181 | 1.13 | 0.165 | 0.844
Cc1cc(O)c2c(c1)OC1(C)CCC3C(C)(C)CCCC34COC2C14 (centres undefined) |  |  |  |  |  | 27.4 |  |  | 29.9 | 24.8 | 28.5 | 30.7 |  |  |  |  |  |  |  | 
COc1ccc(-c2cn3ccnc3c(-c3ccc(Cl)cc3)n2)cc1 | 16.5 | > 100 | 11.7 | > 100 | 4.9 | > 100 |  |  | > 100 | > 100 | > 100 | 64.8 | 5.49 | 2.39 | 16.3 | 10.6 | 3.77 | 28.2 | 14.5 | > 100
CNC(=O)NCCCCC(NC(C)=O)C(=O)NCc1ccccc1 (centres undefined) |  |  |  |  |  | > 100 |  |  | > 100 | > 100 | > 100 | > 100 |  |  |  |  |  |  |  | 
CCNC(=O)COc1ccc(Cl)c(C)c1 |  |  |  |  |  | > 100 |  |  | > 100 |  | > 100 | > 100 |  |  |  |  |  |  |  | 
CCOc1ccc2cc(-c3nn(CC4CCN(C)CC4)c4ncnc(N)c34)ccc2c1 | 13.6 | 29 | 28.4 | > 100 | 4.84 | 24.6 |  |  | 26.7 | > 100 |  | 30.2 | 11.9 | 26.4 |  | 13.7 | 14.7 | 28.2 | 17 | 43.5
Nc1ccccc1SC(/C=C/NNC1=NC(c2ccccc2)C(c2ccccc2)=NN1)c1ccccc1 (centres undefined) |  |  |  |  |  | 15.7 |  |  | 29 | 29 | 34.3 | 17.1 |  |  |  |  |  |  |  | 
NC(=S)c1cccc(C2Nc3ccccc3O2)c1 (centres undefined) |  |  |  | > 100 |  | > 100 |  | > 100 | > 100 | > 100 | > 100 | > 100 |  |  |  |  |  | > 100 |  | > 100
N#C/C(=C/C=C/c1cccc(Cl)c1)S(=O)c1ccccc1 (centres undefined) |  |  | 0.393 | 1.56 | 0.307 | 2.28 | 0.234 | 1.11 | 1.31 | 2.23 | 1.13 | 2.14 | 0.386 | 0.803 | 0.326 | 0.391 | 0.278 | 0.859 | 0.25 | 0.867
COc1c2c(c(O)c3c4c(c(C)cc13)C1OC3(C(OC)OC5CC(C)(O)C(OC6CC(C)(O)C(O)C(C)O6)C(C)O5)OC1C(OC)(O4)C31CO1)C(=O)C(O)CC2OC1CC(C)(O)C(OC(C)=O)C(C)O1 (centres undefined) |  |  |  |  |  | 0.102 |  |  |  | 0.0336 |  | 0.0167 |  |  |  |  |  |  |  | 
NCCOCCOCC(=O)O |  |  |  |  |  | > 100 |  |  |  | > 100 |  | > 100 |  |  |  |  |  |  |  | 
C=C(CN1CCc2ccccc2C1)c1ccc(CCCC(=O)Nc2ccccc2N)cc1 |  |  | 11.3 | 30.4 | 1.28 | 15.3 | 11.2 | 59.3 | 33.1 | 47.1 | 75.2 | > 100 | 17 | 12 | 22.7 | > 100 | 17.4 | 51.6 | 10.5 | 30.3
O=C(C#Cc1ccccc1)NC/C=C/c1ccccc1 |  |  |  |  |  | > 100 |  |  | > 100 | > 100 | 52.5 | > 100 |  |  |  |  |  |  |  | 
O=C(NCCCN1CCN(CCCNC(=O)Nc2cc(Cl)ccc2Cl)CC1)Nc1cc(Cl)ccc1Cl |  |  |  |  |  | > 100 |  |  | > 100 |  | > 100 | > 100 |  |  |  |  |  |  |  | 
O=C1C(=O)N(c2cc(Cl)ccc2Cl)C(=O)C(=O)C1c1nc2ccccc2s1 |  |  |  |  |  |  |  |  | > 100 | > 100 | > 100 | > 100 |  |  |  |  |  |  |  | 
COc1ccc(C(=O)c2ccccc2)c(O)c1 |  |  | 80 | > 100 | 70.6 | > 100 | 10.1 | > 100 | > 100 | > 100 | > 100 | > 100 | > 100 | 40.9 | > 100 | 55.2 | 53.1 | > 100 | > 100 | > 100
Cc1nc(Nc2ccc(Cl)cc2)sc1C(=O)Nc1cccc2c(=O)[nH][nH]c(=O)c12 |  |  |  |  |  | 50.4 |  |  | 34 | 44.2 | > 100 | > 100 |  |  |  |  |  |  |  | 
